The text below walks through data of US9119816B2, “Method for prevention or treatment of diabetic angiogenesis impairment using C-peptide” (KANGWON NATIONAL UNIVERSITY UNIVERSITY-INDUSTRY COOPERATION …, priority 2012, dated 2015).

Entries after “also recorded” stand apart in the source; their conditions may differ.

For test [1], the system named is HUVECs. Kind of test: Inhibition of VEGF-induced tube formation by HUVECs. Type of test: cell-based, human. As to conditions: 10 ng/ml VEGF, 24-30 h. As for the experimental part: FIG. 4B is a graph in which tube formation is quantified by confocal microscopy and results are represented as mean±S.D. from three independent experiments after HUVECs were seeded onto a Matrigel layer and incubated for 24-30 h with 10 ng/ml VEGF in the presence of the indicated concentrations of L-NAME, PD98058, and wortmannin.
(§1) The formation of capillary-like networks by HUVECs on growth factor-reduced Matrigel (BD Biosciences, Franklin Lakes, N.J.) was achieved using a method known in the art. Briefly, 24-well culture plates were coated with Matrigel according to the manufacturer's instructions. HUVECs were seeded onto a layer of Matrigel at a density of 4×10^5 cells/well, and treated with VEGF or C-peptide at 37° C. for 24 to 30 h. The degree of tube formation was quantified by measuring the length of tubes from the images using the FV-300 software.
(§2) The roles of ERK1/2, PI3K/Akt, and NO in C-peptide-induced angiogenesis were examined using PD98059, wortmannin, and L-NG-nitroarginine methyl ester (L-NAME), respectively.

Test [2] deals with HUVECs. Kind of test: Inhibition of C-peptide-induced tube formation by HUVECs. It is filed as cell-based, human. As to conditions: 0.5 nM C-peptide, 24-30 h. The method, then:
FIG. 4A is a graph in which tube formation is quantified by confocal microscopy and results are represented as mean±S.D. from three independent experiments after HUVECs were seeded onto a Matrigel layer and incubated for 24-30 h with 0.5 nM C-peptide (C-pep) in the presence of the indicated concentrations of L-NAME, PD98058, and wortmannin, and
as §1, §2

Test [3] has as its system NIH3T3 cells. Kind of test: Wound healing (scratch) assay (NIH3T3 fibroblasts). As to conditions: NIH3T3, 24 h; C-peptide 0.5 nM, FGF-2 1 ng/ml; p<0.01. Type of test: cell-based. The method, then:
(§3) HUVECs and NIH3T3 cells were cultured on 6-well culture plates coated with gelatin. After being obtained, confluent cell layers were starved with low-serum media for 6 h, stained with 1 μM calcein-AM for 30 min, and wounded with a plastic scraper. Low-serum media and cell debris were removed, followed by replenishing the cell culture with 2 ml of low-serum media containing VEGF or C-peptide. Cells were then incubated at 37° C. for 24 h. Migrated cells was counted from images obtained using a confocal microscope (FV-300, Olympus).
C-peptide-induced cell migration was further investigated by the wound-healing assay. […] FGF-2 also stimulated chemotactic migration and wound healing in fibroblast cells (p<0.01; FIG. 6).

Test [4] concerns HUVECs. The experiment in a line: Tube formation assay on Matrigel. As to conditions: 24 to 30 h; for formation of capillary-like networks (tube formation): VEGF 10 ng/ml. Type of test: cell-based, human. The method, then: To examine whether C-peptide can activate angiogenesis in vitro, a tube formation assay was conducted in a Matrigel layer using HUVECs.
as §1

Test [5] concerns NIH3T3 cells. The experiment in a line: Transwell migration assay (NIH3T3 fibroblasts). Type of test: cell-based. The settings on record: 12 h; for chemotactic migration of fibroblast cells: FGF-2 1 ng/ml. As for the experimental part:
NIH3T3 fibroblasts obtained from ATCC (American Type Culture Collection) were grown in a DMEM medium supplemented with 10% calf serum, 100 U/ml penicillin, and 100 μg/ml streptomycin.
NIH3T3 cells were serum starved for 12 hrs in a low-serum medium (DMEM supplemented as above, but with only 0.1% calf serum).
(§4) Angiogenesis is accompanied by endothelial cell migration and capillary-like network formation. To evaluate the ability of C-peptide to induce angiogenesis by examining whether C-peptide stimulates endothelial cell migration, the chemotactic motility of HUVECs and NIH3T3 cells were assayed using TRANSWELL® Permeable Supports (Costar, Corning, N.Y.).
(§5) In detail, the lower surface of the filters was coated with 5 μl of 2% gelatin. Low-serum media containing VEGF, FGF-2 or C-peptide were placed in the lower wells. HUVECs or NIH3T3 cells were seeded at a density of 1×10^5 cells per 200 μl of the low-serum medium in each of the upper wells, and incubated at 37° C. for 12 h. Cells were fixed with 100% methanol for 15 min, stained with hematoxylin and eosin, and dried. The average number of migrated cells in three randomly chosen fields of view per insert was taken to quantify the extent of migration using a fluorescence inverted microscope (Olympus).
To elucidate the role of C-peptide in the migration of chemotactic fibroblast cells, NIH3T3 cells were treated with C-peptide for 12 h.

Test [6] is described as follows: Hair follicle regeneration and blood vessel formation around wound (whole-mount PECAM-1 immunostaining). Type of test: in vivo. The settings on record: diabetic mice + C-peptide vs diabetic mice, 14 days after wounding. As for the experimental part: The effect of C-peptide on the regeneration of hair follicles and the formation of blood vessels was observed by whole-mount immunostaining. In this regard, 14 days after wounding, mice were sacrificed, and the dorsal skin was removed for observation of hair follicles and blood vessels. Skin tissues from all the dead mice were excised using a scissor in order to avoid damaging its healing edge, fixed immediately in 4% paraformaldehyde in PBS overnight, and stored overnight in methanol at −20° C. For immunohistochemistry, tissue samples were blocked with 2% BSA in 0.1% TritonX-100 in TBS, and incubated with goat-polyclonal platelet endothelial cell adhesion molecule-I antibody for 2 d, followed by probing with Alexa-546-conjugated rabbit anti-goat IgG and then confocal microscopy.

In another test the test system is NO. The experiment in a line: Intracellular NO production (DAF-FM DA, confocal microscopy) in HUVECs. It is filed as cell-based, human. As to conditions: 2 h, 0.5 nM C-peptide (p<0.05) or 10 ng/ml VEGF (p<0.01). The method, then:
Since phosphorylation of Akt increases NO production by VEGF, which is the important factor mediating angiogenesis, an examination was made to see whether C-peptide can stimulate NO production. For this, intracellular NO levels were measured using DAF-FM DA (diaminofluorescein-FM diacetate, Molecular Probes, Eugene, Oreg.) according to a method known in the art.
Briefly, HUVECs were treated with VEGF or C-peptide in phenol red-free low-serum media for indicated times and incubated with 2 μM DAF-FM DA for the final 1 h. Thereafter, the cells were washed with low-serum media before confocal microscropy. Levels of intracellular NO were determined by comparing the fluorescence intensities of treated cells with those of untreated control cells and expressing them as fold differences.

Test [7] relates to HUVECs. Kind of test: Wound healing (scratch) assay (HUVECs). It is filed as cell-based, human. As to conditions: 24 h, C-peptide 0.5 nM, VEGF 10 ng/ml, p<0.01. As for the experimental part:
as §3

In test [8] the test system is HUVECs. The experiment in a line: Transwell migration assay (HUVECs). As to conditions: 12 h; for chemotactic migration of endothelial cells: VEGF 10 ng/ml. Type of test: cell-based, human. As for the experimental part:
HUVECs were isolated from the human umbilical cord vein according to a well known process, and cells from passages 3 to 6 were used in the following experiments. Cells were inoculated into M199 culture media (supplemented with 20% FBS, 3 ng/ml bFGF, 5 U/ml heparin, 100 U/ml penicillin, and 100 μg/ml streptomycin) in 2% gelatin-coated coverslips, dishes, or plates, and grown at 37° C. in a humidified 5% CO2 incubator.
For experiments, cells were serum starved for 6 h by incubation in low-serum medium (M199 supplemented as above, but with only 1% FBS), and treated for a suitable time with 10 ng/ml VEGF in the presence or absence of various concentrations of C-peptide.
as §4, §5

The nature of test [9]: Cutaneous wound healing in streptozotocin-induced diabetic mice. It is filed as in vivo. The method, then:
(§6) Male C57BL/6 mice, six weeks old, were purchased from Nara Biotech (Seoul, Korea). The mice were maintained in temperature-controlled clean racks with a 12-h light/dark cycle. All experiments were performed in accordance with the guidelines of the Institutional Animal Care and Use Ethics Committee of Kangwon National University.
Diabetic mice were generated by single intraperitoneal injection of a 100 mM citrate buffer (pH 4.5) containing streptozotocin in (150 mg/kg body weight). After injection, mice were supplied overnight with 10% sucrose to prevent sudden hypoglycemic shock. Sufficient hyperglycemia was observed two days after injection, as measured for blood glucose by the Accu-Check Active blood glucose monitor (Roch Diagnostics, Germany) and for glucosurea by Uriscan (TD Diagnostics, Young-In, Korea). After 1 week, mice with non-fasting blood glucose levels greater than 16 mM, polyuria, and glucosuria were defined diabetic and used for experiment. […]
The dorsal skin of the vertebral column was shaved with Veet cream before creating a wound. Full-thickness skin wounds, 4 mm in diameter, were created on the dorsal surface of the hind limbs with a biopsy punch, and closure was monitored with a digital camera. Open wound size was measured by tracing the wound margin using vernier calipers at regular intervals of two days, and monitored with a digital camera. […]

Test [10] is described as follows: In vivo Matrigel plug assay. As to conditions: mice, s.c. 0.5 ml Matrigel with 5 nM C-peptide or 100 ng/ml VEGF, 7 days, compared with control. The method, then:
as §6
A matrigel plug assay was used to examine whether C-peptide can induce angiogenesis in vivo. In this regard, in vivo Matrigel plug assays were performed according to a method known in the art.
Briefly, mice were injected subcutaneously with 0.5 ml of Matrigel containing 100 ng/ml VEGF or 5 nM C-peptide, and 10 U heparin. After 7 days, the Matrigel plugs were removed from the subcutaneous region, and photographed using a camera (Sony, Japan).

Another test concerns Akt. Kind of test: Akt phosphorylation by Western blot in HUVECs. The settings on record: for Akt phosphorylation: 0.5 nM C-peptide or 10 ng/ml VEGF, time-dependent. It is filed as cell-based, human. As for the experimental part:
(§7) Since the activation of ERK1/2 and Akt is critical for the induction of cell migration and tube formation, an examination was made of the effect of C-peptide on ERK1/2 and AKT phosphorylation in HUVECs.
(§8) Phosphorylation of ERK1/2 and Akt was determined by Western blot analyses. Briefly, HUVECs were scraped off with ice-cold lysis buffer (50 mM Tris-HCl, pH 7.5, 1% Triton X-100, 150 mM NaCl, 1 mM EDTA, 0.1 mM PMSF, 10 μg/mL aprotinin, and 10 μg/mL leupeptin) and centrifuged at 18,000 g for 10 min at 4° C. The resulting cell lysates were separated by SDS-PAGE and transferred to polyvinylidene fluoride membranes.
(§9) Protein bands were visualized by exposure to X-ray films and a chemiluminescent substrate (Pierce, Rockford, Ill.). Levels of protein phosphorylation were normalized using the total amount of the proteins, and are expressed relative to unstimulated control levels (CON) in FIGS. 3A and 3B.

The subject of a further test is ERK1/2. The experiment in a line: ERK1/2 phosphorylation by Western blot in HUVECs. Type of test: cell-based, human. The settings on record: for ERK1/2 phosphorylation: 0.5 nM C-peptide or 10 ng/ml VEGF, time-dependent. The method, then:
as §7, §8, §9

In the case of `COC(=O)[C@@H](N)CCCNC(=N)N[N+](=O)[O-]` [L-NAME, L-NG-nitroarginine methyl ester], in the test with HUVECs [1], the “effect on VEGF-induced tube formation” value was “prevented”. In addition, the “inhibition of C-peptide-stimulated tube formation” value with HUVECs [2] was “dose-dependent inhibition”.

Take `COc1cccc(-c2cc(=O)c3ccccc3o2)c1N` [PD98059]: in the test with HUVECs [1], the “effect on VEGF-induced tube formation” value is “prevented”. Besides, in the test with HUVECs [2], the “concentration of maximal inhibition of C-peptide-stimulated tube formation” value was found to be 10 µM and the “inhibition of C-peptide-stimulated tube formation” value is listed as “inhibited”.

C-peptide: the “cell migration to the wounded area (fibroblasts)” value in the test on NIH3T3 cells [3] is reported as “significantly stimulated”. Moreover, in the test on HUVECs [4], the “concentration of maximal effect on formation of capillary-like networks” value is given as 0.5 nM and the “formation of capillary-like networks (tube formation)” value is “stimulated”. In addition, in the test on NIH3T3 cells [5], the “concentration of maximal effect on chemotactic migration of fibroblast cells” value is reported as 1 nM and the “chemotactic migration of fibroblast cells” value is on record as “dose-dependent increase”. For the same molecule, in [6], the “regeneration (number) of hair follicles around wound” value is “significant increase; also recorded: increased”. Further, in [6] (PECAM-1 staining), the “formation (number) of blood vessels around wound” value is listed as “significant increase; also recorded: increased”. For the same molecule, the “level of intracellular NO” value in the test with NO is listed as “significantly elevated”. Also, the “cell migration to the wounded area” value in the test on HUVECs [7] was “significantly stimulated”. Besides, in the test on HUVECs [8], the “concentration of maximal effect on chemotactic migration of endothelial cells” value turned out to be 0.5 nM and the “chemotactic migration of endothelial cells” value was “dose-dependent increase”. The “wound area versus normal mice” value in test [9] (STZ-diabetic mice, C-peptide 35 pmol/kg/min s.c. osmotic pump, 4 mm wound, 4 and 10 days after skin injury) is recorded as “no significant differences”. In [9] (diabetic mice + C-peptide vs diabetic mice), the “wound closure compared with diabetic mice” value is listed as “accelerated”. Also, the “new blood vessel formation in Matrigel plug” value in [10] is given as “significantly higher induction”. The “time of maximal effect on Akt phosphorylation” value in the test on Akt (0.5 nM C-peptide) was 15 min. Besides, the Akt phosphorylation result in the test with Akt is reported as “induced”. For the same molecule, in the test on ERK1/2 (0.5 nM C-peptide), the “ERK1/2 activation maintained until” value is recorded as 60 min and the “time of maximal stimulation of ERK1/2 phosphorylation” value turned out to be 15 min. Further, the ERK1/2 phosphorylation result in the test with ERK1/2 was “increased”.

In the case of “FGF-2: growth factor used as comparator for fibroblast migration [reference compound]”, the “cell migration to the wounded area (fibroblasts)” value with NIH3T3 cells [3] is recorded as “stimulated”. In addition, the “chemotactic migration of fibroblast cells” value with NIH3T3 cells [5] is given as “stimulated”.

As for “vascular endothelial growth factor [VEGF, reference compound]”, in the test with HUVECs [4], the “formation of capillary-like networks (tube formation)” value was “induced”. For the same molecule, the “level of intracellular NO” value in the test on NO is given as “higher level”. Further, the “cell migration to the wounded area” value in the test on HUVECs [7] is “stimulated”. Moreover, the “chemotactic migration of endothelial cells” value in the test with HUVECs [8] is on record as “stimulated”. The “new blood vessel formation in Matrigel plug” value in test [10] is listed as “similar”. Further, in the test with Akt, the Akt phosphorylation entry is recorded as “induced”. In the test with ERK1/2, the ERK1/2 phosphorylation entry is listed as “induced”.
